In experiment [1] the target is T1, human cathepsin F (Homo sapiens, UniProt Q9UBX1).
T1 sequence (Q9UBX1 271-484): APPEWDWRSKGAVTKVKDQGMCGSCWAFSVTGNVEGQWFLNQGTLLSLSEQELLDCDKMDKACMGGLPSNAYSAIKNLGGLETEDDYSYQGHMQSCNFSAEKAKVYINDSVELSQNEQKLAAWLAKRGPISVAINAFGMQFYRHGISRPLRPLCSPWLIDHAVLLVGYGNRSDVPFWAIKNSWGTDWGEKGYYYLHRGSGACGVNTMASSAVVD
Description: Cathepsin F assay (hCat F). The note with it: Z-Phe-Arg-AMC substrate, pH 5.5, 15 min preincubation; read-out: hCat F (IP (nM)). The experiment is classed as biochemical. A digest of the protocol:
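Enzyme (10 nM) was preincubated 15 min at room temperature with compounds (1/3 DMSO dilution series, 500–0.025 μM) in 50 mM MES pH 5.5, 2.5 mM EDTA, 2.5 mM DTT, 10% DMSO. Z-Phe-Arg-AMC (8 μM) was added and AMC fluorescence (Ex 360/Em 460 nm) followed for 20 min. % inhibition was fitted to dose-response curves.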

In experiment [2] the target is human cathepsin K (UniProt P43236). The experiment is described as follows: Cathepsin K Assay (hrbCat K). The experiment is classed as biochemical. Conditions: Z-Leu-Arg-AMC substrate, pH 5.5, 15 min preincubation; read-out: hrbCat K (IP (nM)). The gist of the method:
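Human cathepsin K (0.4 nM) was preincubated 15 min at room temperature with compound in 50 mM MES pH 5.5, 2.5 mM EDTA, 2.5 mM DTT and 10% DMSO. Inhibition was fitted to a dose-response model.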

Each structure is given as a SMILES string.

For the compound `N#CC1(NC(=O)[C@@H]2CCC(F)(F)C[C@H]2c2nc(-c3ccc(F)cn3)sc2-c2ccc(N3CCS(=O)(=O)CC3)cc2)CC1` [Example 107, (1R,2R)-N-(1-cyanocyclopropyl)-2-(5-(4-(1,1-dioxidothiomorpho-lino)phenyl)-2-(5-fluoropyridin-2-yl)thiazol-4-yl)-4,4-difluorocyclohexane-carboxamide], the IC50 was found to be 1000 nM in experiment [1] and 3.3 nM in experiment [2].
Regarding `N#CC1(NC(=O)[C@@H]2CCCC[C@H]2c2nc(-c3cccc(C4CCOCC4)c3)sc2-c2ccc(N3CCS(=O)(=O)CC3)cc2)CC1` [Example 110, (1R,2R)-N-(1-cyanocyclopropyl)-2-(5-(4-(1,1-dioxidothiomorpho-lino)phenyl)-2-(3-(tetrahydro-2H-pyran-4-yl)phenyl)thiazol-4-yl)cyclohexane-carboxamide], the results for the IC50 in experiment [1] and in experiment [2] were 3330 nM and 1.7 nM, respectively.
`COc1ccc(-c2nc([C@@H]3CC[C@H](F)C[C@H]3C(=O)NC3(C#N)CC3)c(-c3ccc(N4CCS(=O)(=O)CC4)cc3)s2)nc1` [Example 114, (1R,2R,5S)-N-(1-cyanocyclopropyl)-2-(5-(4-(1,1-dioxidothiomorpho-lino)phenyl)-2-(5-methoxypyridin-2-yl)thiazol-4-yl)-5-fluorocyclohexane-carboxamide]: the IC50 in experiment [1] was 1000 nM; in experiment [2], 1.1 nM.
The corresponding values for `N#CC1(NC(=O)[C@@H]2CCC(F)(F)C[C@H]2c2nc(-c3cncc(Cl)c3)sc2-c2ccc(N3CCS(=O)(=O)CC3)cc2)CC1` [Example 115, (1R,2R)-2-(2-(5-chloropyridin-3-yl)-5-(4-(1,1-dioxidothiomorpho-lino)phenyl)thiazol-4-yl)-N-(1-cyanocyclopropyl)-4,4-difluorocyclohexane-carboxamide] are 2660 nM and 2.2 nM.
The corresponding values for `N#CC1(NC(=O)[C@@H]2C[C@@H](F)CC[C@H]2c2nc(N3CCOCC3)sc2-c2ccc(N3CCS(=O)(=O)CC3)cc2)CC1` [Example 116, (1R,2R,5S)-N-(1-cyanocyclopropyl)-2-(5-(4-(1,1-dioxidothiomorpho-lino)phenyl)-2-morpholinothiazol-4-yl)-5-fluorocyclohexane-carboxamide] are 1000 nM and 2.4 nM.
In the case of `N#CC1(NC(=O)[C@@H]2CCCC[C@H]2c2nc(N3CC(F)(F)C3)sc2-c2ccc(N3CCS(=O)(=O)CC3)cc2)CC1` [Example 117, (1R,2R)-N-(1-cyanocyclopropyl)-2-(2-(3,3-difluoroazetidin-1-yl)-5-(4-(1,1-dioxidothiomorpho-lino)phenyl)thiazol-4-yl)cyclohexane-carboxamide], the IC50 in experiment [1] was not below 10000 nM; in experiment [2], 8 nM.
For `N#CC1(NC(=O)[C@@H]2CCCC[C@H]2c2nc(-c3ccnc(C(F)(F)F)n3)sc2-c2ccc(N3CCS(=O)(=O)CC3)cc2)CC1` [Example 118, (1R,2R)-N-(1-cyanocyclopropyl)-2-(5-(4-(1,1-dioxidothiomorpho-lino)phenyl)-2-(2-(trifluoromethyl)pyrimidin-4-yl)thiazol-4-yl)cyclohexane-carboxamide], the IC50 in experiment [1] was not below 10000 nM; in experiment [2] it was 59.4 nM.
The corresponding values for `Cc1nccc(-c2nc([C@@H]3CCCC[C@H]3C(=O)NC3(C#N)CC3)c(-c3ccc(N4CCS(=O)(=O)CC4)cc3)s2)n1` [Example 119, (1R,2R)-N-(1-cyanocyclopropyl)-2-(5-(4-(1,1-dioxidothiomorpho-lino)phenyl)-2-(2-methylpyrimidin-4-yl)thiazol-4-yl)cyclohexane-carboxamide] are 1200 nM and 1.3 nM.
With `N#CC1(NC(=O)[C@@H]2CCCC[C@H]2c2nc(-c3ccc4c(c3)OCCO4)sc2-c2ccc(N3CCS(=O)(=O)CC3)cc2)CC1` [Example 120, (1R,2R)-N-(1-cyanocyclopropyl)-2-(2-(2,3-dihydrobenzo[b][1,4]dioxin-6-yl)-5-(4-(1,1-dioxidothiomorpho-lino)phenyl)thiazol-4-yl)cyclohexane-carboxamide], the figures for the IC50 in experiment [1] and in experiment [2] were 1110 nM and 1.4 nM, respectively.
In the case of `N#CC1(NC(=O)[C@@H]2CCCC[C@H]2c2nc(-c3ccc(C4CCOCC4)cc3)sc2-c2ccc(N3CCS(=O)(=O)CC3)cc2)CC1` [Example 121, (1S,2R)-N-(1-cyanocyclopropyl)-2-(5-(4-(1,1-dioxidothiomorpho-lino)phenyl)-2-(4-(tetrahydro-2H-pyran-4-yl)phenyl)thiazol-4-yl)cyclohexane-carboxamide], the values for the IC50 in experiment [1] and in experiment [2] were 1110 nM and 1.5 nM, respectively.
The corresponding values for `N#CC1(NC(=O)[C@@H]2CCCC[C@H]2c2nc(-c3ccc(F)c(C4CCOCC4)c3)sc2-c2ccc(N3CCS(=O)(=O)CC3)cc2)CC1` [Example 122, (1R,2R)-N-(1-cyanocyclopropyl)-2-(5-(4-(1,1-dioxidothiomorpho-lino)phenyl)-2-(4-fluoro-3-(tetrahydro-2H-pyran-4-yl)phenyl)thiazol-4-yl)cyclohexane-carboxamide] are 1110 nM and 2.2 nM.
The corresponding values for `N#CCNC(=O)[C@@H]1C[C@@H](F)CC[C@H]1c1nc(-c2cncc(F)c2)sc1-c1ccc(N2CCS(=O)(=O)CC2)cc1` [Example 123, (1R,2R,5S)-N-(cyanomethyl)-2-(5-(4-(1,1-dioxidothiomorpho-lino)phenyl)-2-(5-fluoropyridin-3-yl)thiazol-4-yl)-5-fluorocyclohexane-carboxamide] are 2490 nM and 1.7 nM.
`N#CCNC(=O)[C@@H]1C[C@@H](F)CC[C@H]1c1nc(-c2ccc(F)cn2)sc1-c1ccc(N2CCS(=O)(=O)CC2)cc1` [Example 124, (1R,2R,5S)-N-(cyanomethyl)-2-(5-(4-(1,1-dioxidothiomorpho-lino)phenyl)-2-(5-fluoropyridin-2-yl)thiazol-4-yl)-5-fluorocyclohexane-carboxamide]: the IC50 was 3120 nM in experiment [1] and 1.8 nM in experiment [2].
The corresponding values for `CS(=O)(=O)c1ccc(-c2sc(-c3cncc(F)c3)nc2[C@@H]2CCCC[C@H]2C(=O)NC2(C#N)CC2)cc1` [Example 125, (1R,2R)-N-(1-cyanocyclopropyl)-2-(2-(5-fluoropyridin-3-yl)-5-(4-(methylsulfonyl)phenyl)thiazol-4-yl)cyclohexane-carboxamide] are 310 nM and 7.5 nM.
As for `Cc1ncc(-c2nc([C@@H]3CC[C@H](F)C[C@H]3C(=O)NC3(C#N)CC3)c(-c3ccc(N4CCS(=O)(=O)CC4)cc3)s2)s1` [Example 128, (1R,2R,5S)-N-(1-cyanocyclopropyl)-2-(5-(4-(1,1-dioxidothiomorpho-lino)phenyl)-2′-methyl-[2,5′-bithiazol]-4-yl)-5-fluorocyclohexane-carboxamide], the IC50 in experiment [1] is not below 10000 nM; in experiment [2] it was 1.8 nM.
For the compound `C[C@H](C#N)NC(=O)[C@@H]1C[C@@H](F)CC[C@H]1c1nc(-c2ccc(F)cn2)sc1-c1ccc(N2CCS(=O)(=O)CC2)cc1` [Example 129, (1R,2R,5S)-N-((R)-1-cyanoethyl)-2-(5-(4-(1,1-dioxidothiomorpho-lino)phenyl)-2-(5-fluoropyridin-2-yl)thiazol-4-yl)-5-fluorocyclohexane-carboxamide], the IC50 is not below 10000 nM in experiment [1] and 25.5 nM in experiment [2].
The corresponding values for `C[C@@H](C#N)NC(=O)[C@@H]1C[C@@H](F)CC[C@H]1c1nc(-c2ccc(F)cn2)sc1-c1ccc(N2CCS(=O)(=O)CC2)cc1` [Example 130, (1R,2R,5S)-N-((S)-1-cyanoethyl)-2-(5-(4-(1,1-dioxidothiomorpho-lino)phenyl)-2-(5-fluoropyridin-2-yl)thiazol-4-yl)-5-fluorocyclohexane-carboxamide] are 1000 nM and 0.9 nM.
The corresponding values for `CS(=O)(=O)c1ccc(-c2sc(-c3cccnc3)nc2[C@@H]2CCCC[C@H]2C(=O)NC2(C#N)CC2)cc1` [Example 131, (1R,2R)-N-(1-cyanocyclopropyl)-2-(5-(4-(methylsulfonyl)phenyl)-2-(pyridin-3-yl)thiazol-4-yl)cyclohexane-carboxamide] are 1790 nM and 39.7 nM.
The corresponding values for `N#CC1(NC(=O)[C@@H]2CCCC[C@H]2c2nc(-c3cccc(C(F)(F)F)n3)sc2-c2ccc(N3CCS(=O)(=O)CC3)cc2)CC1` [Example 132, (1R,2R)-N-(1-cyanocyclopropyl)-2-(5-(4-(1,1-dioxidothiomorpho-lino)phenyl)-2-(6-(trifluoromethyl)pyridin-2-yl)thiazol-4-yl)cyclohexane-carboxamide] are 2340 nM and 1.8 nM.
Turning to `CC1(c2nc([C@@H]3CCCC[C@H]3C(=O)NC3(C#N)CC3)c(-c3ccc(N4CCS(=O)(=O)CC4)cc3)s2)CCOCC1` [Example 133, (1R,2R)-N-(1-cyanocyclopropyl)-2-(5-(4-(1,1-dioxidothiomorpho-lino)phenyl)-2-(4-methyltetrahydro-2H-pyran-4-yl)thiazol-4-yl)cyclohexane-carboxamide], the IC50 in experiment [1] was not below 10000 nM; in experiment [2], 4.9 nM.
On to `N#CC1(NC(=O)[C@@H]2CCCC[C@H]2c2nc(-c3cncc(F)c3)sc2-c2ccc(N3CCS(=N)(=O)CC3)cc2)CC1` [Example 135, (1R,2R)-N-(1-cyanocyclopropyl)-2-(2-(5-fluoropyridin-3-yl)-5-(4-(1-imino-1-oxidothiomorpholino)phenyl)thiazol-4-yl)cyclohexane-carboxamide], for which the IC50 in experiment [1] is 1560 nM; in experiment [2], 1.2 nM.

These data come from US9573913B2, “Cathepsin cysteine protease inhibitors” (Merck Sharp & Dohme Corp., priority 2013, dated 2017).
